In paper PMC7452071 (Acta Pharmaceutica Sinica. B, 2019):
Where two headings read alike, the source gives them in different places.

How the values were obtained:
TOP2α = TOP2α (Homo sapiens, UniProt P11388); assay: TOP2-mediated pBR322 DNA relaxation assay; type: biochemical
HCT116 (colon cancer) = assay: In vitro cell viability assay; type: cell-based; settings: Homo sapiens
[1] = target: human recombinant HDAC1 enzyme (Homo sapiens, UniProt Q13547); assay: HDACs activity assay, HDAC1; type: biochemical
Sequence of human recombinant HDAC1 enzyme (Q13547 whole entry): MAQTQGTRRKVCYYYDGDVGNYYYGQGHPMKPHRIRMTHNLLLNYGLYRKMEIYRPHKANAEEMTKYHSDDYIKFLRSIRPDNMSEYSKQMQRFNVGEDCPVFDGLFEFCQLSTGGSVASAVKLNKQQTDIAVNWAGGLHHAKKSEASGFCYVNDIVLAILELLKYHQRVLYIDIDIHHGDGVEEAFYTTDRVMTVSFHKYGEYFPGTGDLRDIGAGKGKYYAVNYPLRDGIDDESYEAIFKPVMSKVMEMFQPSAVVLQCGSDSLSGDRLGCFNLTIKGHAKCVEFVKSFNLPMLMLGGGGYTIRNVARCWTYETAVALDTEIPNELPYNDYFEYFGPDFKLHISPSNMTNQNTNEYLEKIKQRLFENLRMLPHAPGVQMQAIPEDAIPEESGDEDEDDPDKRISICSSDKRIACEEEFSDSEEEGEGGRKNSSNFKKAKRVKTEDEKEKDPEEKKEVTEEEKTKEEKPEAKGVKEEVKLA

MCF-7 (breast cancer) = assay: In vitro cell viability assay; type: cell-based; settings: Homo sapiens, MCF7, 48 h, read-out: IC50 MCF-7
A549 (lung cancer) = assay: In vitro cell viability assay; type: cell-based; settings: Homo sapiens, A549, 48 h, read-out: IC50 A549
[2] = HCT-116, 48 h, read-out: IC50 HCT116

Sequence of TOP2α (P11388 whole entry): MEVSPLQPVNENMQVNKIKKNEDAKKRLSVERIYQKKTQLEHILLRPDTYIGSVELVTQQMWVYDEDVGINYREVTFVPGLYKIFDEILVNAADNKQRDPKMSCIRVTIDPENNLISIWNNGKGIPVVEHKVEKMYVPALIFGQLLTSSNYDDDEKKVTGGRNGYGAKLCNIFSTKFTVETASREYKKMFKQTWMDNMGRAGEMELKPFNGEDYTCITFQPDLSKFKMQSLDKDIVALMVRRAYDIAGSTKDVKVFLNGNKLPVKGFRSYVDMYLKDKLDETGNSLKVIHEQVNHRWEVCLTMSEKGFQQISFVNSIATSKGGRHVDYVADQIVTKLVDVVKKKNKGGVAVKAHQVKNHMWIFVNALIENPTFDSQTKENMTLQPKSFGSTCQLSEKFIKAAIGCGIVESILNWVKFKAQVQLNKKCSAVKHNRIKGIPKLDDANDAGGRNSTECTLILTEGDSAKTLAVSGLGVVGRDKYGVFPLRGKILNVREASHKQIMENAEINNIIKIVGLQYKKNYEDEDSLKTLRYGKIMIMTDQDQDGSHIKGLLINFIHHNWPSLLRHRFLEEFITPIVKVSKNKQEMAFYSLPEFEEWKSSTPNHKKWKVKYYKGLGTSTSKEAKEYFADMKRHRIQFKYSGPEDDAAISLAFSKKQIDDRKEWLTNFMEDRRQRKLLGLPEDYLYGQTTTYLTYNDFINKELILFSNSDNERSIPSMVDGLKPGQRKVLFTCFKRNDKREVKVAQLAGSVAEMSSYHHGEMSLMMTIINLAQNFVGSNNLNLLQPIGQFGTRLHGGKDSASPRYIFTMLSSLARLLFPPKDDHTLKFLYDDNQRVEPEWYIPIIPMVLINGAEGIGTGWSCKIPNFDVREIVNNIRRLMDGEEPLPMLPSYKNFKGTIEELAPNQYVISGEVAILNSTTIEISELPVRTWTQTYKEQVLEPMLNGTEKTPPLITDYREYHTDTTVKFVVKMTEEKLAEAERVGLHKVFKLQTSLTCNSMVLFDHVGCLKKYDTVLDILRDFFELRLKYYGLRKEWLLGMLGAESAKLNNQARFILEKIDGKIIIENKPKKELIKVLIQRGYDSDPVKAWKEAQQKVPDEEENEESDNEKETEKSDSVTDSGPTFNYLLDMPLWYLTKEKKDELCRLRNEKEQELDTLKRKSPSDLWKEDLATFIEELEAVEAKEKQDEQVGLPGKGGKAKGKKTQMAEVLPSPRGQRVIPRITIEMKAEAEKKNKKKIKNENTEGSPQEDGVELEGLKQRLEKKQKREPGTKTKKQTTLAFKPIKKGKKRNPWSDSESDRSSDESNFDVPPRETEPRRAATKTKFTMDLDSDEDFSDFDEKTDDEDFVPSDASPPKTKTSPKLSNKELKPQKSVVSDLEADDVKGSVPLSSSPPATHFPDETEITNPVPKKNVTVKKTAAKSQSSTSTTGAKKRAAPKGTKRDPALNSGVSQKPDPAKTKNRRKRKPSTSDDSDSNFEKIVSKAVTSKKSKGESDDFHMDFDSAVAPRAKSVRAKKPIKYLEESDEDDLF

`CN1c2ccccc2C(=O)N2[C@H](C(=O)NCCCCCC(=O)NO)Cc3c([nH]c4ccccc34)[C@@H]12` [Compound 20b, (7S,13bS)-N-(6-(Hydroxyamino)-6-oxohexyl)-14-methyl-5-oxo-5,7,8,13,13b,14-hexahydroindolo[2′,3′:3,4]pyrido[2,1-b]quinazoline-7-carboxamide] was tested, and the “TOP2 inhibitory activity (relaxation assay)” value (“TOP2 inhibitory activity” for short) (TOP2α; 100 μmol/L) was “inactive”, the IC50 (HCT116 (colon cancer); [2]) was 11 ± 1.3 µM and the IC50 [1] was 0.053 ± 0.0045 µM. For the same molecule, the IC50 (MCF-7 (breast cancer)) was greater than 50 µM and the IC50 (A549 (lung cancer)) was greater than 50 µM.

For `CN1c2ccccc2C(=O)N2[C@H](C(=O)Nc3cccc(/C=C/C(=O)NO)c3)Cc3c([nH]c4ccccc34)[C@@H]12` [Compound 25b, (7S,13bS)-N-(3-((E)-3-(Hydroxyamino)-3-oxoprop-1-en-1-yl)phenyl)-14-methyl-5-oxo-5,7,8,13,13b,14-hexahydroindolo[2′,3′:3,4]pyrido[2,1-b]quinazoline-7-carboxamide], the “TOP2 inhibitory activity” value (TOP2α; 50 μmol/L) was “remarkable TOP2 inhibitory activities”, the “TOP2 inhibitory activity” value (TOP2α; 100 μmol/L) was “remarkable TOP2 inhibitory activities” and the IC50 (HCT116 (colon cancer); [2]) was 0.52 ± 0.36 µM. The IC50 [1] was 0.031 ± 0.0023 µM, the IC50 (MCF-7 (breast cancer)) was 2.2 ± 0.18 µM and the IC50 (A549 (lung cancer)) was 15 ± 1.4 µM.

`CN1c2ccc(F)cc2C(=O)N2[C@H](C(=O)Nc3ccc(C(=O)Nc4ccccc4N)cc3)Cc3c([nH]c4ccccc34)[C@@H]12` [Compound 30b, (7S,13bS)-N-(4-((2-Aminophenyl)carbamoyl)phenyl)-3-fluoro-14-methyl-5-oxo-5,7,8,13,13b,14-hexahydroindolo[2′,3′:3,4]pyrido[2,1-b]quinazoline-7-carboxamide] showed an IC50 (HCT116 (colon cancer); [2]) of 2.4 ± 0.22 µM, an IC50 (HCT116 (colon cancer); HCT-116, read-out: IC50 HCT116) of 3.6 µM and an IC50 [1] of 0.18 ± 0.02 µM. The IC50 (MCF-7 (breast cancer)) was greater than 50 µM and the IC50 (A549 (lung cancer)) was 7.9 ± 0.68 µM.

For `CN1c2ccccc2C(=O)N2[C@H](C(=O)Nc3ccc(C(=O)NO)cc3)Cc3c([nH]c4ccccc34)[C@@H]12` [Compound 32, (7S,13bS)-N-(4-(Hydroxycarbamoyl)phenyl)-14-methyl-5-oxo-5,7,8,13,13b,14-hexahydroindolo[2′,3':3,4]pyrido[2,1-b]quinazoline-7-carboxamide], the “TOP2 inhibitory activity” value (TOP2α; 50 μmol/L) was “remarkable TOP2 inhibitory activities”, the “TOP2 inhibitory activity” value (TOP2α; 100 μmol/L) was “remarkable TOP2 inhibitory activities” and the IC50 (HCT116 (colon cancer); [2]) was 2.2 ± 0.18 µM. It also gave an IC50 [1] of 0.26 ± 0.024 µM, an IC50 (MCF-7 (breast cancer)) of 13 ± 1.4 µM and an IC50 (A549 (lung cancer)) of 11 ± 1.2 µM.

`CN1c2ccccc2C(=O)N2[C@@H](C(=O)Nc3ccc(/C=C/C(=O)NO)cc3)Cc3c([nH]c4ccccc34)[C@H]12` [ent-25a, (7R,13bR)-N-(4-((E)-3-(Hydroxyamino)-3-oxoprop-1-en-1-yl)phenyl)-14-methyl-5-oxo-5,7,8,13,13b,14-hexahydroindolo[2′,3′:3,4]pyrido[2,1-b]quinazoline-7-carboxamide] was tested, and the IC50 (HCT116 (colon cancer); [2]) was 0.53 ± 0.45 µM, the IC50 [1] was 0.018 ± 0.0016 µM and the IC50 (MCF-7 (breast cancer)) was 1.6 ± 0.14 µM. It also gave an IC50 (A549 (lung cancer)) of 2.8 ± 0.22 µM.

`CN1c2ccccc2C(=O)N2[C@@H](C(=O)Nc3cccc(/C=C/C(=O)NO)c3)Cc3c([nH]c4ccccc34)[C@H]12` [ent-25b, (7R,13bR)-N-(3-((E)-3-(Hydroxyamino)-3-oxoprop-1-en-1-yl)phenyl)-14-methyl-5-oxo-5,7,8,13,13b,14-hexahydroindolo[2′,3′:3,4]pyrido[2,1-b]quinazoline-7-carboxamide] showed an IC50 (HCT116 (colon cancer); [2]) of 3.1 ± 0.28 µM, an IC50 [1] of 0.01 ± 0.0006 µM and an IC50 (MCF-7 (breast cancer)) of 12 ± 1.5 µM. It also gave an IC50 (A549 (lung cancer)) of 20 ± 2.4 µM.

`CN1c2ccccc2C(=O)N2[C@@H](C(=O)Nc3ccc(C(=O)Nc4ccccc4N)cc3)Cc3c([nH]c4ccccc34)[C@H]12` [ent-30a, (7R,13bR)-N-(4-((2-Aminophenyl)carbamoyl)phenyl)-14-methyl-5-oxo-5,7,8,13,13b,14-hexahydroindolo[2′,3′:3,4]pyrido[2,1-b]quinazoline-7-carboxamide] was tested, and the IC50 (HCT116 (colon cancer); [2]) was 2.9 ± 2 µM, the IC50 [1] was 0.022 ± 0.0021 µM and the IC50 (MCF-7 (breast cancer)) was 17 ± 1.8 µM. The IC50 (A549 (lung cancer)) was 5.4 ± 0.48 µM.

Molecule `CN1c2ccccc2C(=O)N2[C@@H](C(=O)Nc3ccc(C(=O)NO)cc3)Cc3c([nH]c4ccccc34)[C@H]12` [ent-32, (7R,13bR)-N-(4-(Hydroxycarbamoyl)phenyl)-14-methyl-5-oxo-5,7,8,13,13b,14-hexahydroindolo[2′,3′:3,4]pyrido[2,1-b]quinazoline-7-carboxamide] has an IC50 (HCT116 (colon cancer); [2]) of 1.6 ± 0.13 µM, an IC50 [1] of 0.01 ± 0.0008 µM and an IC50 (MCF-7 (breast cancer)) of 5.3 ± 0.5 µM. It also gave an IC50 (A549 (lung cancer)) of 12 ± 1.5 µM.
